Measurements published in patent US11292770B2, “Pyridazinone herbicides” (FMC Corporation, priority 2017, dated 2022).

Columns and labels:
Assay type in all cases: in vivo
[1] = test system: foxtail, green (green foxtail, Setaria viridis); assay: Test A postemergence, foxtail, green; details: 0 to 100 scale
Source text: (§1) Seeds of plant species selected from barnyardgrass (Echinochloa crus-galli), kochia (Kochia scoparia), ragweed (common ragweed, Ambrosia elation), ryegrass, Italian (Italian ryegrass, Lolium multiflorum), foxtail, green (green foxtail, Setaria viridis), and pigweed (Amaranthus retroflexus) were planted into a blend of loam soil and sand and treated preemergence with a directed soil spray using test chemicals formulated in a non-phytotoxic solvent mixture which included a surfactant. At the same time, plants selected from these weed species and also wheat (Triticum aestivum), corn (Zea mays), blackgrass (Alopecurus myosuroides), and galium (catchweed bedstraw, Galium aparine) were planted in pots containing the same blend of loam soil and sand and treated with postemergence applications of test chemicals formulated in the same manner Plants ranged in height from 2 to 10 cm and were in the one- to two-leaf stage for the postemergence treatment. Treated plants and untreated controls were maintained in a greenhouse for approximately 10 d, after which time all treated plants were compared to untreated controls and visually evaluated for injury. Plant response ratings, summarized in Table A, are based on a 0 to 100 scale where 0 is no effect and 100 is complete control. A dash (—) response means no test result.

[2] = test system: barnyardgrass (Echinochloa crus-galli); assay: Test A postemergence, barnyardgrass; details: 0 to 100 scale
Source text: as §1

[3] = test system: ragweed (common ragweed, Ambrosia elation); assay: Test A preemergence, ragweed; details: 0 to 100 scale
Source text: as §1

[4] = test system: kochia (Kochia scoparia); assay: Test A preemergence, kochia; details: 0 to 100 scale
Source text: as §1

[5] = test system: galium (catchweed bedstraw, Galium aparine); assay: Test A postemergence, galium; details: 0 to 100 scale
Source text: as §1

[6] = test system: corn (Zea mays); assay: Test A postemergence, corn; details: 0 to 100 scale
Source text: as §1

[7] = test system: barnyardgrass (Echinochloa crus-galli); assay: Test A preemergence, barnyardgrass; details: 0 to 100 scale
Source text: as §1

[8] = test system: blackgrass (Alopecurus myosuroides); assay: Test A postemergence, blackgrass; details: 0 to 100 scale
Source text: as §1

[9] = test system: foxtail, green (green foxtail, Setaria viridis); assay: Test A preemergence, foxtail, green; details: 0 to 100 scale
Source text: as §1

[10] = test system: wheat (Triticum aestivum); assay: Test A postemergence, wheat; details: 0 to 100 scale
Source text: as §1

[11] = test system: ryegrass, Italian (Italian ryegrass, Lolium multiflorum); assay: Test A preemergence, ryegrass, Italian; details: 0 to 100 scale
Source text: as §1

[12] = test system: ryegrass, Italian (Italian ryegrass, Lolium multiflorum); assay: Test A postemergence, ryegrass, Italian; details: 0 to 100 scale
Source text: as §1

[13] = test system: pigweed (Amaranthus retroflexus); assay: Test A preemergence, pigweed; details: 0 to 100 scale
Source text: as §1

[14] = test system: kochia (Kochia scoparia); assay: Test A postemergence, kochia; details: 0 to 100 scale
Source text: as §1

[15] = test system: pigweed (Amaranthus retroflexus); assay: Test A postemergence, pigweed; details: 0 to 100 scale
Source text: as §1

[16] = test system: ragweed (common ragweed, Ambrosia elation); assay: Test A postemergence, ragweed; details: 0 to 100 scale
Source text: as §1

[17] = test system: barnyardgrass (Echinochloa crus-galli); assay: Test B flooded paddy test, barnyardgrass; details: Flood, 250 g ai/ha; scale of 0 to 100, 0 no effect, 100 complete control
Description: (§2) Plant species in the flooded paddy test selected from rice (Oryza sativa), sedge, umbrella (small-flower umbrella sedge, Cyperus difformis), ducksalad (Heteranthera limosa), and barnyardgrass (Echinochloa crus-galli) were grown to the 2-leaf stage for testing. At the time of treatment, test pots were flooded to 3 cm above the soil surface, treated by application of test compounds directly to the paddy water, and then maintained at that water depth for the duration of the test. Treated plants and controls were maintained in a greenhouse for 13 to 15 d, after which time all species were compared to controls and visually evaluated. Plant response ratings, summarized in Table B, are based on a scale of 0 to 100 where 0 is no effect and 100 is complete control. A dash (—) response means no test result.

[18] = test system: ducksalad (Heteranthera limosa); assay: Test B flooded paddy test, ducksalad; details: Flood, 250 g ai/ha; scale of 0 to 100
Description: as §2

[19] = test system: sedge, umbrella (small-flower umbrella sedge, Cyperus difformis); assay: Test B flooded paddy test, sedge, umbrella; details: Flood, 250 g ai/ha; scale of 0 to 100
Description: as §2

[20] = test system: rice (Oryza sativa); assay: Test B flooded paddy test, rice; details: Flood, 250 g ai/ha; scale of 0 to 100
Description: as §2

[21] = 125 g ai/ha, 0 no effect, 100 complete control

Row | SMILES | Plant response rating, Foxtail, Green ([1]; 31 g ai/ha) | Plant response rating, Foxtail, Green ([1]; 125 g ai/ha) | Plant response rating, Barnyardgrass ([2]; 31 g ai/ha) | Plant response rating, Barnyardgrass [2, 21] | Plant response rating, Ragweed ([3]; 31 g ai/ha) | Plant response rating, Ragweed ([3]; 125 g ai/ha) | Plant response rating, Kochia ([4]; 31 g ai/ha) | Plant response rating, Kochia ([4]; 125 g ai/ha) | Plant response rating, Galium ([5]; 31 g ai/ha) | Plant response rating, Galium ([5]; 125 g ai/ha) | Plant response rating, Corn ([6]; 31 g ai/ha) | Plant response rating, Corn ([6]; 125 g ai/ha) | Plant response rating, Barnyardgrass ([7]; 31 g ai/ha) | Plant response rating, Barnyardgrass ([7]; 125 g ai/ha) | Plant response rating, Blackgrass ([8]; 31 g ai/ha) | Plant response rating, Blackgrass ([8]; 125 g ai/ha) | Plant response rating, Foxtail, Green ([9]; 31 g ai/ha) | Plant response rating, Foxtail, Green ([9]; 125 g ai/ha) | Plant response rating, Wheat ([10]; 31 g ai/ha) | Plant response rating, Wheat ([10]; 125 g ai/ha) | other results
1 | Cn1nc(Cl)c(O)c(-c2c3ccccc3c(Br)c3ccccc23)c1=O [Compound 3, 4-(10-bromo-9-anthracenyl)-6-chloro-5-hydroxy-2-methyl-3(2H)-pyridazinone] | 40 | 90 | 20 | 60 | 20 | 100 | 0 | 50 | 90 | 90 | 0 | 10 | 0 | 50 | 10 | 70 | 10 | 80 | 20 | 60 | Plant response rating, Ryegrass, Italian ([11]; 31 g ai/ha): 20; Plant response rating, Ryegrass, Italian ([11]; 125 g ai/ha): 80; Plant response rating, Ryegrass, Italian ([12]; 31 g ai/ha): 40; Plant response rating, Ryegrass, Italian ([12]; 125 g ai/ha): 50; Plant response rating, Pigweed ([13]; 31 g ai/ha): 100; Plant response rating, Pigweed ([13]; 125 g ai/ha): 100; Plant response rating, Kochia ([14]; 31 g ai/ha): 10; Plant response rating, Kochia ([14]; 125 g ai/ha): 50; Plant response rating, Pigweed ([15]; 31 g ai/ha): 100; Plant response rating, Pigweed ([15]; 125 g ai/ha): 100; Plant response rating, Ragweed ([16]; 31 g ai/ha): 80; Plant response rating, Ragweed ([16]; 125 g ai/ha): 90
2 | Cc1c2ccccc2c(-c2c(O)c(Cl)nn(C)c2=O)c2ccccc12 [Compound 5] | 0 | 30 | 0 | 30 | 0 | 0 | 0 | 0 | 20 | 70 | 10 | 20 | 0 | 0 | 0 | 0 | 0 | 0 | 0 | 0 | Plant response rating, Barnyardgrass [17]: 0; Plant response rating, Ducksalad [18]: 90; Plant response rating, Ryegrass, Italian ([11]; 31 g ai/ha): 0; Plant response rating, Ryegrass, Italian ([11]; 125 g ai/ha): 0; Plant response rating, Ryegrass, Italian ([12]; 31 g ai/ha): 0; Plant response rating, Ryegrass, Italian ([12]; 125 g ai/ha): 50; Plant response rating, Sedge, Umbrella [19]: 95; Plant response rating, Rice [20]: 0; Plant response rating, Pigweed ([13]; 31 g ai/ha): 0; Plant response rating, Pigweed ([13]; 125 g ai/ha): 60; Plant response rating, Kochia ([14]; 31 g ai/ha): 0; Plant response rating, Kochia ([14]; 125 g ai/ha): 0; Plant response rating, Pigweed ([15]; 31 g ai/ha): 50; Plant response rating, Pigweed ([15]; 125 g ai/ha): 90; Plant response rating, Ragweed ([16]; 31 g ai/ha): 10; Plant response rating, Ragweed ([16]; 125 g ai/ha): 20
3 | Cn1nc(Cl)c(O)c(-c2c3ccccc3c(Cl)c3ccccc23)c1=O [Compound 2, 6-chloro-4-(10-chloro-9-anthracenyl)-5-hydroxy-2-methyl-3(2H)-pyridazinone] | 10 | 60 | 0 | 20 | 80 | 100 | 0 | 10 | 20 | 100 | 0 | 0 | 0 | 0 | 0 | 60 | 0 | 90 | 0 | 30 | Plant response rating, Barnyardgrass [17]: 0; Plant response rating, Ducksalad [18]: 80; Plant response rating, Ryegrass, Italian ([11]; 31 g ai/ha): 20; Plant response rating, Ryegrass, Italian ([11]; 125 g ai/ha): 70; Plant response rating, Ryegrass, Italian ([12]; 31 g ai/ha): 50; Plant response rating, Ryegrass, Italian ([12]; 125 g ai/ha): 80; Plant response rating, Sedge, Umbrella [19]: 75; Plant response rating, Rice [20]: 0; Plant response rating, Pigweed ([13]; 31 g ai/ha): 100; Plant response rating, Pigweed ([13]; 125 g ai/ha): 100; Plant response rating, Kochia ([14]; 31 g ai/ha): 10; Plant response rating, Kochia ([14]; 125 g ai/ha): 70; Plant response rating, Pigweed ([15]; 31 g ai/ha): 100; Plant response rating, Pigweed ([15]; 125 g ai/ha): 100; Plant response rating, Ragweed ([16]; 31 g ai/ha): 90; Plant response rating, Ragweed ([16]; 125 g ai/ha): 90
4 | Cn1nc(Cl)c(O)c(-c2c3ccccc3cc3ccccc23)c1=O [Compound 1, 4-(9-anthracenyl)-6-chloro-5-hydroxy-2-methyl-3(2H)-pyridazinone] | 10 | 50 | 0 | 20 | 70 | 100 | 0 | 20 | 70 | 90 | 0 | 0 | 0 | 0 | 0 | 10 | 0 | 0 | 0 | 10 | Plant response rating, Barnyardgrass [17]: 20; Plant response rating, Ducksalad [18]: 85; Plant response rating, Ryegrass, Italian ([11]; 31 g ai/ha): 20; Plant response rating, Ryegrass, Italian ([11]; 125 g ai/ha): 30; Plant response rating, Ryegrass, Italian ([12]; 31 g ai/ha): 20; Plant response rating, Ryegrass, Italian ([12]; 125 g ai/ha): 40; Plant response rating, Sedge, Umbrella [19]: 90; Plant response rating, Rice [20]: 0; Plant response rating, Pigweed ([13]; 31 g ai/ha): 100; Plant response rating, Pigweed ([13]; 125 g ai/ha): 100; Plant response rating, Kochia ([14]; 31 g ai/ha): 10; Plant response rating, Kochia ([14]; 125 g ai/ha): 20; Plant response rating, Pigweed ([15]; 31 g ai/ha): 90; Plant response rating, Pigweed ([15]; 125 g ai/ha): 100; Plant response rating, Ragweed ([16]; 31 g ai/ha): 80; Plant response rating, Ragweed ([16]; 125 g ai/ha): 90
